# From ChEMBL document CHEMBL1201862, “PubChem BioAssay data set” (2004)
# Active and inactive are the calls of the source.
# Tests used:
# [1] = target: DNA (cytosine-5)-methyltransferase 1 (Homo sapiens, UniProt P26358); experiment: inhibition of DNA methylation by DNMT1 – biochemical, fluorescent molecular beacon, confirmation (AID 602386); type: functional
# [2] = target: T1, Low molecular weight phosphotyrosine protein phosphatase (Homo sapiens, UniProt P24666); type: functional; settings: read-out: IC50_Mean;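 further: Dose-response confirmation assay measuring inhibition of LMPTP enzyme activity by fluorescence intensity read-out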
# T1 sequence (P24666 whole entry): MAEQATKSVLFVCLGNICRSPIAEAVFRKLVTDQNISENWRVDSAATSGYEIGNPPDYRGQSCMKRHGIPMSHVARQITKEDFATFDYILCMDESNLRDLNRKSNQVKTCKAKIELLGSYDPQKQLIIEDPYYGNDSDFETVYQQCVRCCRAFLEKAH
# [3] = target: T2, Adenosylmethionine-8-amino-7-oxononanoate aminotransferase (Mycobacterium tuberculosis, UniProt P9WQ81); experiment: Mycobacterium tuberculosis BioA enzyme inhibitor Measured in Biochemical System Using Plate Reader - 2163-02_Inhibitor_Dose_CherryPick_Activity.; type: functional, Mycobacterium tuberculosis UT205
# T2 sequence (P9WQ81 whole entry): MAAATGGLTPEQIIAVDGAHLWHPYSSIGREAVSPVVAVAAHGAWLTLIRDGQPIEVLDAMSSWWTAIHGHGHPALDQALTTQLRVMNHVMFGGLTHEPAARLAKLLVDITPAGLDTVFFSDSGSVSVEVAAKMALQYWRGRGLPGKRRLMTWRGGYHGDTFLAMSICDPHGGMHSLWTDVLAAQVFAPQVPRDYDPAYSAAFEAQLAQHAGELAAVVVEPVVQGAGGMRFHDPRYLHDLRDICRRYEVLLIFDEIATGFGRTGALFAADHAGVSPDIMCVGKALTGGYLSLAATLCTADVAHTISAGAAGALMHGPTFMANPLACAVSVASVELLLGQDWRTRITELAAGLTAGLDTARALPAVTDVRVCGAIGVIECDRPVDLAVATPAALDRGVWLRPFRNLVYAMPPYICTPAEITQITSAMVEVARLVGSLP
# [4] = target: T3, Sentrin-specific protease 8 (Homo sapiens, UniProt Q96LD8); type: functional;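 further: luminescence read-out of SENP8 inhibition, dose-response confirmation following an ultra-high-throughput screen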
# T3 sequence (Q96LD8 whole entry): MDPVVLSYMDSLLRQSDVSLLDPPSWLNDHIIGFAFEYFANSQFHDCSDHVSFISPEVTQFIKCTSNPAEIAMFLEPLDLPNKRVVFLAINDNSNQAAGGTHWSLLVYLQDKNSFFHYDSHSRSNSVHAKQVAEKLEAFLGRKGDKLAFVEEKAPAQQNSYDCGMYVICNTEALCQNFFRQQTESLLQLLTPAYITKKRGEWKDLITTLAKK
# Caspase-3 = target: T4, Caspase-3 (Homo sapiens, UniProt P42574); type: functional;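 further: Dose-response selectivity test against caspase-3 for candidate inhibitors of sentrin-specific proteases (SENPs)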
# T4 sequence (P42574 whole entry): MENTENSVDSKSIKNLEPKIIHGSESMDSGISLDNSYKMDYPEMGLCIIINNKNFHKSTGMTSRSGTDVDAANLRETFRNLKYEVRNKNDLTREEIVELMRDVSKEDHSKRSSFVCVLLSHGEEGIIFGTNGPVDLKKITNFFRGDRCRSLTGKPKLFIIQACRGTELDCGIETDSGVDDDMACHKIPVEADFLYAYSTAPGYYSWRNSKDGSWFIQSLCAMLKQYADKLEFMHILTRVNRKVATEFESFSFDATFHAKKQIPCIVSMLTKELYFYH
# [5] = target: T5, Sentrin-specific protease 6 (Homo sapiens, UniProt Q9GZR1); type: functional;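 further: Luminescence-based dose-response confirmatory assay of SENP6 inhibition, following up an ultra-high-throughput screen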
# T5 sequence (Q9GZR1 whole entry): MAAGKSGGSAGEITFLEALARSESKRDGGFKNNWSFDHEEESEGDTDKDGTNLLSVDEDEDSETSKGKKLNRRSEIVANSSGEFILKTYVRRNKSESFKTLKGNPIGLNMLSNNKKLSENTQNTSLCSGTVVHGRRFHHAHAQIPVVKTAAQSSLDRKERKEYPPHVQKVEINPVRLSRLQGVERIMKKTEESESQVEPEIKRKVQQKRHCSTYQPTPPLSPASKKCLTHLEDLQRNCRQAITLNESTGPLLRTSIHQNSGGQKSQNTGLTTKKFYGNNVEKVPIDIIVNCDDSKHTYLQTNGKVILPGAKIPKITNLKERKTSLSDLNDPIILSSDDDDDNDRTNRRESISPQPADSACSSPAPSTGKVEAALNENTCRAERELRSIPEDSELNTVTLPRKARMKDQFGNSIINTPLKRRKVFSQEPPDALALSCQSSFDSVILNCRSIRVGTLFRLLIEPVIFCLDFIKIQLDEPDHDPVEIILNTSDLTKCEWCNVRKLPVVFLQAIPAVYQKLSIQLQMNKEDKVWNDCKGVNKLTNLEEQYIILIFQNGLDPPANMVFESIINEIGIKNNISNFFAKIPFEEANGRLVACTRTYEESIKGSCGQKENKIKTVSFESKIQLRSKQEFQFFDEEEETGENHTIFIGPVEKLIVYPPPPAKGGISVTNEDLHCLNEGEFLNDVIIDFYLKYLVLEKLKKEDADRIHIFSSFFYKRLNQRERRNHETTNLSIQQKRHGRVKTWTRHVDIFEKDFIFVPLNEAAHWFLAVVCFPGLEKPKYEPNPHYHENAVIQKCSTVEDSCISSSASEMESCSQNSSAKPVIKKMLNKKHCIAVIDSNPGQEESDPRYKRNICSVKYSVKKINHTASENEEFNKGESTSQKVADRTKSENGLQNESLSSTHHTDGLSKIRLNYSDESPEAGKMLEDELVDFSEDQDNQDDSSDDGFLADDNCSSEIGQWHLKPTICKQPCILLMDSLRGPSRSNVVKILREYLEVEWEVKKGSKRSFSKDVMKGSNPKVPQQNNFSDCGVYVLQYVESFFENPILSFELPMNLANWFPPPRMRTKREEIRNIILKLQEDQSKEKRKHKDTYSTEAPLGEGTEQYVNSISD
# [6] = target: T6, Sentrin-specific protease 7 (Homo sapiens, UniProt Q9BQF6); type: functional;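 further: Luminescence-based dose-response confirmation of ultra-high-throughput screening hits, measuring inhibition of SENP7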
# T6 sequence (Q9BQF6 whole entry): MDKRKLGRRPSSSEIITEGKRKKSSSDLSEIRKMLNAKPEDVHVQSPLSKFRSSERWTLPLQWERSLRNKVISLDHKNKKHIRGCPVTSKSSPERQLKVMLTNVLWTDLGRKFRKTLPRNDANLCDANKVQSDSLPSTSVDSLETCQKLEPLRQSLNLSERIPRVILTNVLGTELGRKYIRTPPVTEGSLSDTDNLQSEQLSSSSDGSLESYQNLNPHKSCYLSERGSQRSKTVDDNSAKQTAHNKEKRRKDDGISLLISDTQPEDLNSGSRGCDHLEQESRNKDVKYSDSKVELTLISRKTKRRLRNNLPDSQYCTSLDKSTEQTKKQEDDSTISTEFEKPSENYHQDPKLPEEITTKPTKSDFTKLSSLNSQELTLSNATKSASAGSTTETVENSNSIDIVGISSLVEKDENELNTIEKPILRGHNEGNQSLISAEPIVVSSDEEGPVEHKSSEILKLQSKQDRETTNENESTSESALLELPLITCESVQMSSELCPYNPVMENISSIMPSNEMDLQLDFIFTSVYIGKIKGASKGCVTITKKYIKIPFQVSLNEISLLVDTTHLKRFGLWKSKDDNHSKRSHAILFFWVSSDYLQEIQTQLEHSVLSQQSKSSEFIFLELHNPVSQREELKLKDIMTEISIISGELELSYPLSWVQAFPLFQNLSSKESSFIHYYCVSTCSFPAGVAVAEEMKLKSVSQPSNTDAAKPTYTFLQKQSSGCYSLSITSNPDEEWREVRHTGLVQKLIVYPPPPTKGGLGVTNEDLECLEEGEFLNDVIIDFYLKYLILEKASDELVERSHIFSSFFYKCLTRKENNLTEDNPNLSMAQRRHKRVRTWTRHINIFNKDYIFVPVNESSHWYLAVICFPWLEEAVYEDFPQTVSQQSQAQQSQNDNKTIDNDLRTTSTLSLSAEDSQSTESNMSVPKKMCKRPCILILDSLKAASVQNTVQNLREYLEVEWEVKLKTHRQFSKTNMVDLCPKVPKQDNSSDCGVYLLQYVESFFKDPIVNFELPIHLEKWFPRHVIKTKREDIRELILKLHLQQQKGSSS
# [7] = target: T7, Long-chain-fatty-acid--AMP ligase FadD28 (Mycobacterium tuberculosis, UniProt P9WQ59); experiment: Fluorescence polarization aasay to screen for inhibitors that compete for the binding of FadD28 to a bisubstrate Measured in Biochemical System Using Plate Reader - 2147-01_Inhibitor_Dose_CherryPick_Activity.; type: functional, Mycobacterium tuberculosis H37Rv
# T7 sequence (P9WQ59 whole entry): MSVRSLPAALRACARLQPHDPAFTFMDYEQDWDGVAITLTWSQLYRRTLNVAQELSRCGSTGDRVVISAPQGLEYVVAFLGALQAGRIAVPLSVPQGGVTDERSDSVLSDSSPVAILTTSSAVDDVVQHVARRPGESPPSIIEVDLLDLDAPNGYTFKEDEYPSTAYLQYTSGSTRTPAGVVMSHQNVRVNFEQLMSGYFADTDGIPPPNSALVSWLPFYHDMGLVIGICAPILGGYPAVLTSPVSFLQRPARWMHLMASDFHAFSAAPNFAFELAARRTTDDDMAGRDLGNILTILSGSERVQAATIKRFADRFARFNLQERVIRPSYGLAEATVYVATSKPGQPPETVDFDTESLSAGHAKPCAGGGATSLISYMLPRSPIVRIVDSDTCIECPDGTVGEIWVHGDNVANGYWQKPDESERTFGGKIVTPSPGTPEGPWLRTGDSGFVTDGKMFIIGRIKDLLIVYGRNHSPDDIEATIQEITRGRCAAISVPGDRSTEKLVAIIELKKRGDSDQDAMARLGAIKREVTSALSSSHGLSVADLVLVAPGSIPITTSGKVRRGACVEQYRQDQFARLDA
# [8] = target: T8, Carboxy-terminal domain RNA polymerase II polypeptide A small phosphatase 1 (Homo sapiens, UniProt Q9GZU7); experiment: CTDSP1 inhibitors, concentration-response, biochemical, absorbance readout, ultra-high-throughput screen actives (AID 540297); type: functional
# T8 sequence (Q9GZU7 whole entry): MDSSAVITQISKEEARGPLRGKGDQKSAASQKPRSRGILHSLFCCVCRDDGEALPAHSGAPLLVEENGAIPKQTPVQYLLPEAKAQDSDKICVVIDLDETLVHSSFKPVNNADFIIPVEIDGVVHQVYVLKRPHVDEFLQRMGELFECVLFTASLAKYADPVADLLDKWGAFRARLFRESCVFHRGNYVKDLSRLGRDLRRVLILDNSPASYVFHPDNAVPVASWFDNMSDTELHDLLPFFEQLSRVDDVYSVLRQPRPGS
# [9] = target: 72 kDa type IV collagenase (Homo sapiens, UniProt P08253); experiment: Dose Response validation of uHTS RPN11 inhibitor hits using a MMP-2 Fluorescence assay.; type: functional
# 72 kDa type IV collagenase, sequence (P08253 whole entry): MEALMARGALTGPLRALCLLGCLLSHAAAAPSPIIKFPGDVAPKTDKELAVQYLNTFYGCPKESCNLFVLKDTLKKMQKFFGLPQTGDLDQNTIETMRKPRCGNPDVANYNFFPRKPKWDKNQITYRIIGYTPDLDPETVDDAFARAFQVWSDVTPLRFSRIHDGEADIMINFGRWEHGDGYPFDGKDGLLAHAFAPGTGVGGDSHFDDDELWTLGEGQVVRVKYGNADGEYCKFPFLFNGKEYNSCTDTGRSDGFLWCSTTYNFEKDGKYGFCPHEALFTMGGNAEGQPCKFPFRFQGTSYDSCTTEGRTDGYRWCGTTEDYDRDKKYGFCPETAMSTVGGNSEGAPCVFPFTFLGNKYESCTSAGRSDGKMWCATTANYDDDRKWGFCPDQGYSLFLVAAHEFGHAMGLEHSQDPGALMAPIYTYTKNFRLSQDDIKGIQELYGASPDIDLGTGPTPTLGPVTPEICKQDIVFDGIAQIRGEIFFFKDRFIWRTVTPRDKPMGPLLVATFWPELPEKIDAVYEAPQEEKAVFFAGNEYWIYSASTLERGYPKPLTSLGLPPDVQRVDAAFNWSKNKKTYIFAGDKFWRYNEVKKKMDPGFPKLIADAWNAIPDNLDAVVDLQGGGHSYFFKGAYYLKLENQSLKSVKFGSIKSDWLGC
# [10] = target: 26S proteasome non-ATPase regulatory subunit 14 (Homo sapiens, UniProt O00487); experiment: inhibition of proteasome subunit RPN11 – biochemical, fluorescence polarization, uHTS hits, confirmation (AID 602368); type: functional
# 26S proteasome non-ATPase regulatory subunit 14, sequence (O00487 whole entry): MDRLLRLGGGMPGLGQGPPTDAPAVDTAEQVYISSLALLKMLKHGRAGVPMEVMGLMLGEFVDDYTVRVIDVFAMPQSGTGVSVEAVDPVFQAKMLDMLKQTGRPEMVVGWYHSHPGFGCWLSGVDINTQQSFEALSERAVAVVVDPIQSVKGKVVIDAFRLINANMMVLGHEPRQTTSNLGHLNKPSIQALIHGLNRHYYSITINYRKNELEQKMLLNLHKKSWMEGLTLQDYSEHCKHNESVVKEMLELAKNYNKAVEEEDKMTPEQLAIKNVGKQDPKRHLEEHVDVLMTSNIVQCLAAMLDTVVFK
# Prothrombin = Prothrombin (Bos taurus, UniProt P00735); experiment: thrombin protease inhibitors – biochemical, fluorescence polarization, uHTS hits, dose response (AID 602369); type: functional
# [11] = NIH3T3 cell viability loss – ATP luminescence, mouse fibroblasts, counter-screen, dose response (AID 2010); type: functional, cell-based;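 further: cells exposed to compound for about 90 hours before reading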
# [12] = Trypanosoma cruzi growth suppression in host cells – NIH3T3 host cells, beta-gal luminescence, confirmation (AID 2044); type: functional, cell-based;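 further: intracellular parasites grown in NIH/3T3 mouse fibroblasts as host cells; luminescent beta-galactosidase reporter signal from transgenic T. cruzi replicating inside host cells; inhibitors lower the luminescence signal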
# Beta Lactamase = Beta Lactamase (Pseudomonas aeruginosa, UniProt Q932Y6); experiment: BLA reporter interference, concentration series – BLA reporter cells, FRET fluorescence, artefact control for NOD2-RIPK2 interaction inhibitor project, dose response (AID 651552); type: functional, cell-based
# Beta Lactamase, sequence (Q932Y6 whole entry, the tested form may be a part): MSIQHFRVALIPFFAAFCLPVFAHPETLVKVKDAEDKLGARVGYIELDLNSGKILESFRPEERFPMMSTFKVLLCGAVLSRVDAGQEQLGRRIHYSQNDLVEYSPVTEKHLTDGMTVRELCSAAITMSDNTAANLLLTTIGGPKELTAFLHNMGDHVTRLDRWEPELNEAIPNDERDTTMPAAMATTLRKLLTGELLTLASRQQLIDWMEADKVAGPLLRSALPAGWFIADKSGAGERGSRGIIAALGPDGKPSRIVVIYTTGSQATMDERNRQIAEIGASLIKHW
# [13] = Fluorescence-based cell-based high throughput dose response assay for inhibitors of the interaction of nucleotide-binding oligomerization domain containing 2 (NOD2) and the receptor-interacting serine-threonine kinase 2 (RIPK2).; type: functional; settings: Homo sapiens
# DNA (cytosine-5)-methyltransferase 1, sequence (P26358 whole entry): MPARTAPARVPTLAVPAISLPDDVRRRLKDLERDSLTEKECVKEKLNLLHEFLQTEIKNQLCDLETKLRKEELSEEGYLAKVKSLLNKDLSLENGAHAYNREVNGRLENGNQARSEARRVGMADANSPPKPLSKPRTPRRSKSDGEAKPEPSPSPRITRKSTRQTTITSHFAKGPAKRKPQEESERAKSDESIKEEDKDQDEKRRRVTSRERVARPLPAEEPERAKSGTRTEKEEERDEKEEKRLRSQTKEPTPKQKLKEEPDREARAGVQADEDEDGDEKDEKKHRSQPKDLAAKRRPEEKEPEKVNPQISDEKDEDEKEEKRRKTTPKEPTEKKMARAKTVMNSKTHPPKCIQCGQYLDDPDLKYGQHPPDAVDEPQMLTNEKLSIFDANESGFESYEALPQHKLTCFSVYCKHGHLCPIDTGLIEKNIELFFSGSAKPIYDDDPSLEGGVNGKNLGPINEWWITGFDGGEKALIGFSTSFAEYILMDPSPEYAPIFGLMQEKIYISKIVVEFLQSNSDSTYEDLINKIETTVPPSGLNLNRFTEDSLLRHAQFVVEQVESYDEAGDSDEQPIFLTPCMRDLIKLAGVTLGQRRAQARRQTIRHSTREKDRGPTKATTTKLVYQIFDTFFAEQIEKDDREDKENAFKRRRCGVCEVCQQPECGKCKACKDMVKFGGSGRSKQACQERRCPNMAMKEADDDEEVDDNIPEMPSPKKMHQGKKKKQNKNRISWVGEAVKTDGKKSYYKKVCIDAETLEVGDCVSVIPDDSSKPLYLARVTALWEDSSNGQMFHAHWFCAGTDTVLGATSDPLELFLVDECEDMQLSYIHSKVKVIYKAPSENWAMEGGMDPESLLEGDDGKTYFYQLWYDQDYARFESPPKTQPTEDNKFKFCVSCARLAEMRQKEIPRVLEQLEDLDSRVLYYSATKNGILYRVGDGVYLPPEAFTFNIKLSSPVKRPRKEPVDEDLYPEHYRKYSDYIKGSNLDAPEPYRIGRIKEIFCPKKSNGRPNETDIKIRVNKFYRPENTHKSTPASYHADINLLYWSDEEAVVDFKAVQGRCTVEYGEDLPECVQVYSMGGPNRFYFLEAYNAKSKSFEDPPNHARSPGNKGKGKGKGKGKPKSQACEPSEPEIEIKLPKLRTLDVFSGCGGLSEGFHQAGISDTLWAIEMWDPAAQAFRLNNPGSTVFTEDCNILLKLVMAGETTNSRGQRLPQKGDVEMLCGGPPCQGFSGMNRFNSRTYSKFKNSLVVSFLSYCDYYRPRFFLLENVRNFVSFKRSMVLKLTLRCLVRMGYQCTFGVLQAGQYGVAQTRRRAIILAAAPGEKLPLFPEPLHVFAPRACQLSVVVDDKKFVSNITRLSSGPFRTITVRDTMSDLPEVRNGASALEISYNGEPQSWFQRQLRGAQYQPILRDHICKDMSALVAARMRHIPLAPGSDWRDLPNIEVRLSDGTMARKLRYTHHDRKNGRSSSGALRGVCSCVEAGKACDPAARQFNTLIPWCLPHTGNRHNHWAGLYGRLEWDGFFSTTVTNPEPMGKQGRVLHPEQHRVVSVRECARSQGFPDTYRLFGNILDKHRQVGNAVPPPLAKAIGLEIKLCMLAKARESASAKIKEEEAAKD
structure (smiles),measurement,setting,value
N=C(N)NCCCS(=O)(=O)Nc1ccc(Nc2c3ccccc3nc3cc([N+](=O)[O-])ccc23)cc1,IC50,[1],6.83 µM (active)
same,IC50,[2],57 µM (inactive)
O=C(Nc1ncc2c(n1)CC(c1ccccc1)CC2=O)c1ccco1 (stereo not given),AC50,[3],0.201 µM (active)
O=C(Nc1ccc(Cl)c(-c2nc3ccccc3[nH]2)c1)c1cccnc1,AC50,[3],0.788 µM (active)
COc1cc(-c2nnc(S)n2-c2cccc(C(F)(F)F)c2)cc(OC)c1OC,AC50,[3],10.6 µM (active)
O=[N+]([O-])c1ccc(N/N=N/c2ccccc2)cc1,IC50,[4],75.3 µM (active)
same,IC50,Caspase-3,45 µM (active)
same,IC50,[5],46.5 µM (active)
same,IC50,[6],9.64 µM (active)
O=C(O)C(c1ccccc1)N1C(=O)/C(=C\c2ccc(-c3ccccc3Cl)o2)SC1=S (stereo not given),AC50,[7],15.6 µM (active)
same,IC50,[1],4.27 µM (active)
CCOC(=O)c1ccc(Nc2cnc3ccccc3n2)cc1,IC50,[4],> 100 µM (inactive)
same,IC50,Caspase-3,64.6 µM (active)
same,IC50,[5],> 100 µM (inactive)
same,IC50,[6],6.72 µM (active)
O=C(NCc1cccc(CNC(=O)C(=O)NCc2ccco2)c1)C(=O)NCc1ccco1,IC50,[8],> 80 µM (inactive)
same,IC50,[2],6.32 µM (active)
Cc1ccsc1/C=N/n1c(S)nnc1-c1cc(-c2ccccc2)[nH]n1,IC50,[9],> 100 µM (inactive)
same,IC50,[10],21.1 µM (active)
same,IC50,Prothrombin,77.2 µM (active)
C=CCn1cc(/C=N/NC(=O)COc2cccc3cccnc23)c2ccccc21,IC50,[9],> 100 µM (inactive)
same,IC50,[10],27.8 µM (active)
same,IC50,Prothrombin,39 µM (active)
C/N=c1\scc(-c2cc(OC)ccc2OC)n1/N=C/c1c(C)[nH]c2ccccc12,IC50,[9],> 100 µM (inactive)
same,EC50,[11],> 60 µM (not active)
same,IC50,[10],23.8 µM (active)
same,EC50,[12],1.64 µM (active)
same,IC50,Prothrombin,21.1 µM (active)
O=C(CN1CCN(S(=O)(=O)c2ccc(Br)cc2)CC1)N/N=C/c1ccc(Cl)c([N+](=O)[O-])c1,IC50,Beta Lactamase,48.7 µM (inactive)
same,IC50,[13],1.83 µM (active)
